US8846066B2, “Methods and related compositions for reduction of fat and skin tightening” (The Regents of the University of California, priority 2004, dated 2014)

What was measured:
adipocytes = experiment: Adipocyte survival on addition of PC to 4.75% DC; format: cell-based; details: 5% phosphatidylcholine added to 4.75% DC
Protocol: FIG. 9 illustrates survival of adipocytes when phosphatidylcholine is added to 4.75% sodium deoxycholate solution. On y-axis, 1 represents 100% survival. All % concentrations are w/v %. Survival of the cells in the absence of DC and PC is on an average 0.113.

porcine fat tissue = experiment: MTS assay in fresh porcine fat specimens; format: cell-based; details: PBF or 5% solutions, 4 hours
Protocol: To measure cell viability after detergent treatment, HaCaT human keratinocyte cells were cultured in DMEM (Dulbecco's modified Eagle's medium) supplemented with 10% fetal calf serum, penicillin, and streptomycin. […] Cell viability was determined by an absorbance spectrophotometer (at 490 nm) after 4 hour incubation with the assay at 37° C. To determine cell viability in fresh tissue, fat specimens were incubated for 4 hours in 24 well plates with stock reagents and the MTS assay. Tissue specimens were then visualized for color change and the amount of MTS in their supernatants was measured by absorbance (at 490 nm). All studies were performed in triplicate. Absorbance at 490 nm (OD 490) is proportional to the number of living cells in the culture.
Porcine tissue was obtained immediately after sacrifice, shaved, and placed on ice for a maximum of four hours before use. […] Calcein retention was determined by tissue fluorescence using purple (411 nm) light and visually observing the emitted green (500 nm) light using an emission filters.
Fresh porcine skin was used to determine if the effects of these detergent substances on cultured cells were similar in tissue. […] The difference in fat cell viability between the solutions was quantified by measuring the absorbance (at 490) of the supernatants collected from the treated fat specimens (FIG. 3b). […]

[1] = tested on: porcine skin (epidermis, dermis, subcutaneous tissue, muscle); experiment: Histology of full thickness porcine skin after injection
Protocol: Histology was performed by injecting stock reagent solutions (0.5 mL) into full thickness porcine skin at various levels (epidermis, dermis, and subcutaneous tissue) with 1.0 mL syringes and 30-gauge, 0.5 inch needles. Needle depth was visualized along the margin of the porcine tissue with the intent of saturating the target tissue. One hour after incubation with PBS at 37° C., multiple 5.0 mm biopsy specimens were obtained from the injected sites, each condition performed in triplicate. Tissue was fixed in formaldehyde, paraffin-embedded, and stained with hematoxylin-eosin. Specimens were evaluated by a board-certified dermatopathologist who was blinded to the treatment protocol.

## phosphatidylcholine
adipocytes
  effect of phosphatidylcholine on adipolysis: inhibits adipolysis slightly

## alkylaryl polyether alcohol [Triton, reference compound]
Porcine fat tissue
  fat cell viability (MTS purple dye, absorbance at 490): comparable loss of purple dye

## CCCCCCCCCCCC[N+](C)(C)CC(=O)[O-] [Empigen, lauryldimethylbetaine, reference compound]
[1]
  histologic changes in epidermis, dermis, adnexal structures: loss of fibroblast nuclear staining and hyalinization of dermal collagen
